Test results reported in PubChem BioAssay AID2060599 (Molecular Pharmacology Branch, DTP, NCI, 2025).

Test system: 817829-284-R-J1-PDC complex spheroids, viability
Assay: Anticancer human tumor 817829-284-R-J1-PDC patient-derived colon adenocarcinoma cell line growth inhibition [CLK]
Settings: for IC50: curve of first compound; for viability, T/C: stronger effect = lower value; active = viability on the fitted dose curve at most 10% of control; inactive = the rest
How it was run: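 Multi-cell-type spheroids combined patient-derived tumor cells with HUVEC endothelial cells and human mesenchymal stem cells. Paired agents were dosed in half-log steps down from about clinical Cmax, or from 10 microM where Cmax was unknown.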

[1] = second compound 0.0316 µM, first compound 0.0316 µM
[2] = second compound 0.0316 µM, first compound 0.1 µM
[3] = second compound 0.0316 µM, first compound 0.316 µM
[4] = second compound 0.0316 µM, first compound 1 µM
[5] = second compound 0.0316 µM, first compound 3.16 µM
[6] = second compound 0.0316 µM, first compound 10 µM
[7] = second compound 0.1 µM, first compound 0.0316 µM
[8] = second compound 0.1 µM, first compound 0.1 µM
[9] = second compound 0.1 µM, first compound 0.316 µM
[10] = second compound 0.1 µM, first compound 1 µM
[11] = second compound 0.1 µM, first compound 3.16 µM
[12] = second compound 0.1 µM, first compound 10 µM
[13] = second compound 0.316 µM, first compound 0.0316 µM
[14] = second compound 0.316 µM, first compound 0.1 µM
[15] = second compound 0.316 µM, first compound 0.316 µM
[16] = second compound 0.316 µM, first compound 1 µM
[17] = second compound 0.316 µM, first compound 3.16 µM
[18] = second compound 0.316 µM, first compound 10 µM
[19] = second compound 1 µM, first compound 0.0316 µM
[20] = second compound 1 µM, first compound 0.1 µM
[21] = second compound 1 µM, first compound 0.316 µM
[22] = second compound 1 µM, first compound 1 µM
[23] = second compound 1 µM, first compound 3.16 µM
[24] = second compound 1 µM, first compound 10 µM
[25] = second compound 3.16 µM, first compound 0.0316 µM
[26] = second compound 3.16 µM, first compound 0.1 µM
[27] = second compound 3.16 µM, first compound 0.316 µM
[28] = second compound 3.16 µM, first compound 1 µM
[29] = second compound 3.16 µM, first compound 3.16 µM
[30] = second compound 3.16 µM, first compound 10 µM
[31] = second compound 10 µM, first compound 0.0316 µM
[32] = second compound 10 µM, first compound 0.1 µM
[33] = second compound 10 µM, first compound 0.316 µM
[34] = second compound 10 µM, first compound 1 µM
[35] = second compound 10 µM, first compound 3.16 µM
[36] = second compound 10 µM, first compound 10 µM
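Also: spheroids exposed to the agents for seven days before readout.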

CC1(C)CCC(CN2CCN(c3ccc(C(=O)NS(=O)(=O)c4ccc(NCC5CCOCC5)c([N+](=O)[O-])c4)c(Oc4cnc5[nH]ccc5c4)c3)CC2)=C(c2ccc(Cl)cc2)C1 + CN1CCN(c2cc(C(=O)Nc3cc4cc(-c5cnn(C)c5)ccc4cn3)ccn2)CC1
active: viability, T/C [6] 1.02% | viability, T/C [12] 0.96% | viability, T/C [13] 1.84% | viability, T/C [14] 1.97% | viability, T/C [15] 1.65% | viability, T/C [16] 2.48% | viability, T/C [17] 1.41% | viability, T/C [18] 0.06% | viability, T/C [19] 0.11% | viability, T/C [20] 0.09% | viability, T/C [21] 0.08% | viability, T/C [22] 0.09% | viability, T/C [23] 0.09% | viability, T/C [24] 0.06% | viability, T/C [25] 0.12% | viability, T/C [26] 0.12% | viability, T/C [27] 0.12% | viability, T/C [28] 0.11% | viability, T/C [29] 0.13% | viability, T/C [30] 0.07% | viability, T/C [31] 0.06% | viability, T/C [32] 0.07% | viability, T/C [33] 0.09% | viability, T/C [34] 0.09% | viability, T/C [35] 0.17% | viability, T/C [36] 0.1%
4030 nM: IC50 (second compound 0.0316 µM)
< 31.6 nM: IC50 (second compound 0.1 µM) | IC50 (second compound 0.316 µM) | IC50 (second compound 1 µM) | IC50 (second compound 3.16 µM) | IC50 (second compound 10 µM)
inactive: viability, T/C [1] 92.8% | viability, T/C [2] 64.9% | viability, T/C [3] 46.8% | viability, T/C [4] 80.8% | viability, T/C [5] 63.2% | viability, T/C [7] 18% | viability, T/C [8] 19.6% | viability, T/C [9] 16.1% | viability, T/C [10] 18.4% | viability, T/C [11] 20%

CC1COCCN1c1cc(C2(S(C)(=N)=O)CC2)nc(-c2ccnc3[nH]ccc23)n1 (stereo not drawn) + CN1CCN(c2cc(C(=O)Nc3cc4cc(-c5cnn(C)c5)ccc4cn3)ccn2)CC1
inactive: viability, T/C [1] 57.2% | viability, T/C [2] 48.3% | viability, T/C [3] 34.6% | viability, T/C [4] 20.3% | viability, T/C [7] 14.8% | viability, T/C [8] 15.1% | viability, T/C [9] 11.9%
84.3 nM: IC50 (second compound 0.0316 µM)
active: viability, T/C [5] 6.12% | viability, T/C [6] 3.77% | viability, T/C [10] 8.16% | viability, T/C [11] 4.67% | viability, T/C [12] 3.28% | viability, T/C [13] 1.94% | viability, T/C [14] 2.26% | viability, T/C [15] 1.9% | viability, T/C [16] 2.08% | viability, T/C [17] 1.38% | viability, T/C [18] 0.6% | viability, T/C [19] 0.08% | viability, T/C [20] 0.15% | viability, T/C [21] 0.11% | viability, T/C [22] 0.08% | viability, T/C [23] 0.07% | viability, T/C [24] 0.08% | viability, T/C [25] 0.53% | viability, T/C [26] 0.17% | viability, T/C [27] 0.15% | viability, T/C [28] 0.14% | viability, T/C [29] 0.14% | viability, T/C [30] 0.1% | viability, T/C [31] 0.09% | viability, T/C [32] 0.12% | viability, T/C [33] 0.13% | viability, T/C [34] 0.13% | viability, T/C [35] 0.15% | viability, T/C [36] 0.14%
< 31.6 nM: IC50 (second compound 0.1 µM) | IC50 (second compound 0.316 µM) | IC50 (second compound 1 µM) | IC50 (second compound 3.16 µM) | IC50 (second compound 10 µM)

NC(=O)C(=Cn1cnc(-c2cc(C(F)(F)F)cc(C(F)(F)F)c2)n1)c1cncnc1 + CN1CCN(c2cc(C(=O)Nc3cc4cc(-c5cnn(C)c5)ccc4cn3)ccn2)CC1
inactive: viability, T/C (second compound 0.0316 µM, first compound 0.00949 µM) 21.1% | viability, T/C (second compound 0.0316 µM, first compound 0.03 µM) 19.4%
active: viability, T/C (second compound 0.0316 µM, first compound 0.0949 µM) 8.87% | viability, T/C (second compound 0.0316 µM, first compound 0.3 µM) 2.37% | viability, T/C (second compound 0.0316 µM, first compound 0.949 µM) 1.3% | viability, T/C (second compound 0.0316 µM, first compound 3 µM) 0.87% | viability, T/C (second compound 0.1 µM, first compound 0.00949 µM) 7.2% | viability, T/C (second compound 0.1 µM, first compound 0.03 µM) 4.72% | viability, T/C (second compound 0.1 µM, first compound 0.0949 µM) 1.8% | viability, T/C (second compound 0.1 µM, first compound 0.3 µM) 0.15% | viability, T/C (second compound 0.1 µM, first compound 0.949 µM) 0.19% | viability, T/C (second compound 0.1 µM, first compound 3 µM) 0.22% | viability, T/C (second compound 0.316 µM, first compound 0.00949 µM) 0.46% | viability, T/C (second compound 0.316 µM, first compound 0.03 µM) 0.1% | viability, T/C (second compound 0.316 µM, first compound 0.0949 µM) 0.07% | viability, T/C (second compound 0.316 µM, first compound 0.3 µM) 0.05% | viability, T/C (second compound 0.316 µM, first compound 0.949 µM) 0.06% | viability, T/C (second compound 0.316 µM, first compound 3 µM) 0.17% | viability, T/C (second compound 1 µM, first compound 0.00949 µM) 0.06% | viability, T/C (second compound 1 µM, first compound 0.03 µM) 0.09% | viability, T/C (second compound 1 µM, first compound 0.0949 µM) 0.13% | viability, T/C (second compound 1 µM, first compound 0.3 µM) 0.1% | viability, T/C (second compound 1 µM, first compound 0.949 µM) 0.12% | viability, T/C (second compound 1 µM, first compound 3 µM) 0.29% | viability, T/C (second compound 3.16 µM, first compound 0.00949 µM) 0.06% | viability, T/C (second compound 3.16 µM, first compound 0.03 µM) 0.16% | viability, T/C (second compound 3.16 µM, first compound 0.0949 µM) 0.19% | viability, T/C (second compound 3.16 µM, first compound 0.3 µM) 0.12% | viability, T/C (second compound 3.16 µM, first compound 0.949 µM) 0.17% | viability, T/C (second compound 3.16 µM, first compound 3 µM) 0.21% | viability, T/C (second compound 10 µM, first compound 0.00949 µM) 0.02% | viability, T/C (second compound 10 µM, first compound 0.03 µM) 0.09% | viability, T/C (second compound 10 µM, first compound 0.0949 µM) 0.13% | viability, T/C (second compound 10 µM, first compound 0.3 µM) 0.1% | viability, T/C (second compound 10 µM, first compound 0.949 µM) 0.17% | viability, T/C (second compound 10 µM, first compound 3 µM) 0.11%
< 9.49 nM: IC50 (second compound 0.0316 µM) | IC50 (second compound 0.1 µM) | IC50 (second compound 0.316 µM) | IC50 (second compound 1 µM) | IC50 (second compound 3.16 µM) | IC50 (second compound 10 µM)

Nc1ccccc1NC(=O)c1ccc(CNC(=O)OCc2cccnc2)cc1 + CN1CCN(c2cc(C(=O)Nc3cc4cc(-c5cnn(C)c5)ccc4cn3)ccn2)CC1
223 nM: IC50 (second compound 0.0316 µM)
< 31.6 nM: IC50 (second compound 0.1 µM) | IC50 (second compound 0.316 µM) | IC50 (second compound 1 µM) | IC50 (second compound 3.16 µM) | IC50 (second compound 10 µM)
inactive: viability, T/C [1] 61.1% | viability, T/C [2] 70.6% | viability, T/C [3] 39.5% | viability, T/C [4] 21.9% | viability, T/C [7] 15.1% | viability, T/C [8] 14.2% | viability, T/C [9] 13.4%
active: viability, T/C [5] 3.59% | viability, T/C [6] 0.06% | viability, T/C [10] 5.61% | viability, T/C [11] 0.84% | viability, T/C [12] 0.03% | viability, T/C [13] 1.55% | viability, T/C [14] 1.54% | viability, T/C [15] 1.41% | viability, T/C [16] 0.56% | viability, T/C [17] 0.03% | viability, T/C [18] 0.03% | viability, T/C [19] 0.11% | viability, T/C [20] 0.14% | viability, T/C [21] 0.11% | viability, T/C [22] 0.1% | viability, T/C [23] 0.05% | viability, T/C [24] 0.06% | viability, T/C [25] 0.1% | viability, T/C [26] 0.12% | viability, T/C [27] 0.15% | viability, T/C [28] 0.15% | viability, T/C [29] 0.16% | viability, T/C [30] 0.22% | viability, T/C [31] 0.04% | viability, T/C [32] 0.07% | viability, T/C [33] 0.1% | viability, T/C [34] 0.3% | viability, T/C [35] 0.1% | viability, T/C [36] 0.1%
